Measurements from article PMC3731216, “Origin and Functional Diversification of an Amphibian Defense Peptide Arsenal” (PLoS Genetics, 2013).
≈ marks a conversion by molar mass, not a printed value. Where a SMILES comes first, the peptide text is derived from it.

Legend:
[1] = tested on: Escherichia coli (ATCC 25922); experiment: MIC assay in liquid medium (twofold dilutions) against E. coli; format: cell-based; details: lowest concentration in twofold dilutions with no growth; 5×10^5 CFU/ml, Müller-Hinton broth, 37°C, 18 hours, read by eye; duplicate or triplicate, min–max if variable
Description: (§1) Seventeen predicted and recovered peptides were de novo synthesized using solid-phase technology by CASLO Laboratory ApS (Lyngby, Denmark) and delivered as HPLC-purified (>95%) trifluoracetate (TFA) salts. The peptide salts were stored as 5.12 mM stock solutions in 0.01% (V/V) acetic acid/0.2% (m/V) BSA. Peptides were tested against Escherichia coli (ATCC 25922) and Pseudomonas aeruginosa (ATCC 15692), Staphylococcus aureus (ATCC 25923), Micrococcus luteus, Saccharomyces cerevisiae, a protozoan parasite (Trypanosoma brucei brucei), mouse (Mus musculus) red blood cells and mouse spleen tissue cultures (containing 50–60% B-cells, ∼25–30% T-cells, and 5% myeloid cells). All assays were performed in duplicate or triplicate.
(§2) Activity against the bacteria and fungus was measured by assessing the lowest peptide concentration in a series of twofold dilutions at which no growth was detected (known as the minimum inhibitory concentration, MIC). Bacterial and yeast cultures (5×10^5 colony forming units/ml) were prepared in Müller-Hinton (MH) broth and Luria-Bertani (LB) broth respectively and transferred to serial dilutions of peptides ranging from 512 or 256 µM down to 1 or 0.5 µM in 96-well polypropylene plates. After incubation at 37°C (bacteria) or 30°C (S. cerevisiae) for 18 hours, growth of the cultures was checked by eye. In addition to MIC, we determined minimum microbicidal concentrations (MMC) by inoculating samples of the MIC assays on agar plates lacking peptides and checking for overnight growth. In all cases, MIC and MMC were identical.

[2] = Hydrophobicity as % TFA/AcN solvent at HPLC elution time; format: physicochemical; details: chromatographic; expressed as % TFA/AcN solvent at HPLC elution time
[3] = tested on: Staphylococcus aureus (ATCC 25923); experiment: MIC assay in liquid medium (twofold dilutions) against S. aureus; format: cell-based; details: lowest concentration in twofold dilutions with no growth; 5×10^5 CFU/ml, Müller-Hinton broth, 37°C, 18 hours, read by eye; duplicate or triplicate, min–max if variable
Description: as §1, §2

[4] = tested on: Micrococcus luteus; experiment: MIC assay in liquid medium (twofold dilutions) against M. luteus; format: cell-based; details: lowest concentration in twofold dilutions with no growth; 5×10^5 CFU/ml, Müller-Hinton broth, 37°C, 18 hours, read by eye; duplicate or triplicate, min–max if variable
Description: as §1, §2

[5] = tested on: Saccharomyces cerevisiae; experiment: MIC assay in liquid medium (twofold dilutions) against S. cerevisiae; format: cell-based; details: lowest concentration in twofold dilutions with no growth; 5×10^5 CFU/ml, Luria-Bertani broth, 30°C, 18 hours, read by eye; duplicate or triplicate, min–max if variable
Description: as §1, §2

[6] = tested on: mouse red blood cells; experiment: Hemolysis of mouse red blood cells (HC50); format: cell-based; details: lowest concentration causing at least 50% hemolysis; mouse blood diluted 1/100 in RPMI, 37°C, 30 minutes, OD 550 nm; 100% = 1% Tween-20
Description: as §1
Activity against mouse red blood cells was examined by assessing the lowest peptide concentration in a series of twofold dilutions causing at least 50% hemolysis (HC50). Briefly, heparinized blood was obtained by cardiac puncture of mice euthanized via CO2. The blood was diluted 1/100 in RPMI and added to polypropylene 96-well plates containing the serial peptide dilutions to obtain total volumes of 100 µl. The plates were incubated at 37°C in a humidified atmosphere for 30 minutes and centrifuged at 1400 rpm for 2 minutes to pellet intact red blood cells allowing visual observation of hemolysis. Supernatants were subsequently transferred to 96-well flat-bottom plates to allow spectrophotometry using an ELISA reader (OD measured at 550 nm). The percentage of hemolyis for each peptide concentration was calculated as 100×(ODobs−OD0%)/(OD100%−OD0%), where ODobs is the OD measured for the peptide concentration, OD0% is the average OD in the absence of peptides (0% hemolysis), and OD100% is the average OD in the presence of 1% Tween-20 (100% hemolysis).

[7] = tested on: Pseudomonas aeruginosa (ATCC 15692); experiment: MIC assay in liquid medium (twofold dilutions) against P. aeruginosa; format: cell-based; details: lowest concentration in twofold dilutions with no growth; 5×10^5 CFU/ml, Müller-Hinton broth, 37°C, 18 hours, read by eye; duplicate or triplicate, min–max if variable
Description: as §1, §2

[8] = tested on: Trypanosoma brucei brucei AnTat1.1 bloodstream parasites; experiment: Trypanolytic activity (LC95, 30 minutes); format: cell-based; details: lowest concentration killing at least 95% of parasites after 30 minutes; PSG buffer with 5% FCS, light microscope count; min–max of repeated tests
Description: as §1
Activity against T. brucei parasites was assessed as the minimum concentration in a series of twofold dilutions required to kill 95% of parasites in 30 minutes (LC95). Frozen stabilates of Trypanosoma brucei brucei AnTat1.1 bloodstream parasites were expanded by infection of C57Black/6 mice (Janvier). Mice with systemic parasitaemia (typically 4–5 days post infection) were exsanguinated and parasites were purified from heparinized blood by DEAE-cellulose (DE52, Whatman) chromatography. Collected parasites were washed twice with Phosphate-Saline-Glucose buffer (PSG-buffer) and enumerated microscopically using a Bürker hematocytometer. The DEAE52-purified parasites (stock: 10^6 parasites/ml PSG buffer containing 5% FCS) were added to polypropylene 96-well plates containing the serial peptide dilutions to obtain total volumes of 200 µl. After incubation for 30 minutes, trypanolytic activity was assessed using a light microscope by calculating the percentage of dead parasites in a minimum of 200 counted cells.

[9] = tested on: T-lymphocytes (naive C57Black/6 splenocytes); experiment: Inhibition of Concanavalin A-induced T-cell proliferation in spleen cell cultures; format: cell-based, Mus musculus; details: lowest concentration causing at least 50% inhibition of Concanavalin A-induced T-cell proliferation; 2×10^5 splenocytes, 24 h + 18 h [3H]thymidine, 37°C; min–max if variable
Description: as §1
Activity against T-lymphocytes was assessed as the lowest peptide concentration in a series of twofold dilutions causing at least 50% inhibition of Concanavalin A-induced T-cell proliferation (IC50). Solutions containin 2×10^5 naive C57Black/6 splenocytes in the presence of 2.5 µg Concanavalin A were added to polypropylene 96-well plates containing the serial peptide dilutions to obtain total volumes of 100 µl. After incubation for 24 hours at 37°C in a humidified atmosphere, the cells were pulsed with [^3H]thymidine and incubated for an additional 18 hours. The amount of [^3H]thymidine incorporation was assessed by a β-counter as a measure of cell proliferation and the percentage of proliferation inhibition for each peptide concentration was calculated as 100×(1−(Tobs/T100%)), where Tobs is the [^3H]thymidine level measured for the peptide concentration, and T100% is the [^3H]thymidine level measured for Concanavalin-A-induced cell proliferation in the absence of peptide (representing 100% proliferation).

Row | Compound | MIC E. coli [1] [µM] | Hydrophobicity [2] | MIC S. aureus [3] [µM] | MIC M. luteus [4] [µM] | MIC S. cerevisiae [5] [µM] | HC50 Erythrocytes [6] [µM] | MIC P. aeruginosa [7] [µM] | LC95 T. brucei [8] [µM] | IC50 [9] [µM]
1 | CC[C@H](C)[C@H](NC(=O)[C@H](C)NC(=O)[C@H](CCCCN)NC(=O)[C@H](C)NC(=O)[C@H](C)NC(=O)[C@H](CCCCN)NC(=O)CNC(=O)[C@H](Cc1ccccc1)NC(=O)[C@H](C)NC(=O)[C@@H](NC(=O)CNC(=O)[C@H](C)NC(=O)[C@H](CCCCN)NC(=O)[C@@H](NC(=O)[C@H](C)NC(=O)[C@H](CCSC)NC(=O)CN)[C@@H](C)O)[C@@H](C)O)C(=O)N[C@H](C(=O)NCC(=O)N[C@@H](C)C(=O)N[C@@H](C)C(=O)N[C@@H](CC(C)C)C(N)=O)[C@@H](C)CC [PGLa-St2] (H-GMATKAGTAFGKAAKAIIGAAL-NH2; N-terminus assumed) | 16 (≈ 32.3 µg/mL) | 42,6 % TFA/AcN solvent | >256 | 2 (≈ 4.04 µg/mL) | 64 (≈ 129 µg/mL) | >256 | 128 (≈ 258 µg/mL) | 16 to 32 | 64
2 | KLGFENFLVKALKTVMHVPTSPLLa [CPF-St6, predicted S. tropicalis skin peptide encoded by cpf-St6] | 16 | 35,5 % TFA/AcN solvent | >256 | 4 | 64 | 256 | >256 | 16 to 256 | 32 to 64
